Laboratory results as given in patent US6479435B1, “Diaryl ethers and processes for their preparation and herbicidal and desiccant compositions containing them” (ISK Americas Incorporated, priority 1997, dated 2002).

Legend:
Assay in all cases: Pre-emerge greenhouse herbicide test, phytotoxicity rating
Type in all cases: in vivo
[1] = tested on: green foxtail (Setaria viridis, SETVI); conditions: Setaria viridis, pre-emergence, 336 h, 14 days after application, rating scale 0-100; for pest or weed control at 125 g/ha: Rate 125 g al/ha; for pest or weed control at 500 g/ha: Rate 500 g al/ha
In short: (§1)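 Visual 0–100 injury rating (100 = all plants dead) taken 14 days after treatment. Rates of 125–1000 g ai/ha in acetone, 187 l/ha, were sprayed onto soil one day post-sowing; pots were surface-watered to incorporate, then bottom-watered.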

[2] = tested on: Johnsongrass (Sorghum halepense, SORHA); conditions: Sorghum halepense, pre-emergence, 336 h, 14 days after application, rating scale 0-100; for pest or weed control at 125 g/ha: Rate 125 g al/ha; for pest or weed control at 500 g/ha: Rate 500 g al/ha
In short: as §1

[3] = tested on: barnyardgrass (Echinochloa crusgalli, ECHCG); conditions: Echinochloa crus-galli, pre-emergence, 336 h, 14 days after application, rating scale 0-100; for pest or weed control at 125 g/ha: Rate 125 g al/ha; for pest or weed control at 500 g/ha: Rate 500 g al/ha
In short: as §1

Nn1c(C(F)(F)F)cc(=O)n(-c2cc(Oc3ccc(Br)cn3)c(Cl)cc2F)c1=O [Compound 9-2, 1-Amino-3-[4-chloro-2-fluoro-5-(5-bromo-2-pyridyloxy)phenyl]-6-trifluoromethyl-1,2,3,4-tetrahydropyrimidine-2,4-dione]
pest or weed control at 125 g/ha [1]: 80%
pest or weed control at 500 g/ha [1]: 100%
pest or weed control at 125 g/ha [2]: 60%
pest or weed control at 500 g/ha [2]: 90%
pest or weed control at 125 g/ha [3]: 20%
pest or weed control at 500 g/ha [3]: 95%

Nn1c(C(F)(F)F)cc(=O)n(-c2cc(Oc3ccc(Cl)cn3)c(Cl)cc2F)c1=O [Compound 9-3, 1-Amino-3-[4-chloro-2-fluoro-5-(5-chloro-2-pyridyloxy)phenyl]-6-trifluoromethyl-1,2,3,4-tetrahydropyrimidine-2,4-dione]
pest or weed control at 125 g/ha [1]: 100%
pest or weed control at 500 g/ha [1]: 100%
pest or weed control at 125 g/ha [2]: 70%
pest or weed control at 500 g/ha [2]: 99%
pest or weed control at 125 g/ha [3]: 30%
pest or weed control at 500 g/ha [3]: 99%

Nn1c(C(F)(F)F)cc(=O)n(-c2cc(Oc3cccc(Cl)n3)c(Cl)cc2F)c1=O [Compound 9-5, 1-Amino-3-[4-chloro-2-fluoro-5-(6-chloro-2-pyridyloxy)phenyl]-6-trifluoromethyl-1,2,3,4-tetrahydropyrimidine-2,4-dione]
pest or weed control at 125 g/ha [1]: 100%
pest or weed control at 500 g/ha [1]: 100%
pest or weed control at 125 g/ha [2]: 95%
pest or weed control at 500 g/ha [2]: 100%
pest or weed control at 125 g/ha [3]: 90%
pest or weed control at 500 g/ha [3]: 100%

Nn1c(C(F)(F)F)cc(=O)n(-c2cc(Oc3nc(F)c(F)cc3F)c(Cl)cc2F)c1=O [Compound 9-6, 1-Amino-3-[4-chloro-2-fluoro-5-(3,5,6-trifluoro-2-pyridyloxy)phenyl]-6-trifluoromethyl-1,2,3,4-tetrahydropyrimidine-2,4-dione]
pest or weed control at 125 g/ha [1]: 100%
pest or weed control at 500 g/ha [1]: 100%
pest or weed control at 125 g/ha [2]: 90%
pest or weed control at 500 g/ha [2]: 90%
pest or weed control at 125 g/ha [3]: 90%
pest or weed control at 500 g/ha [3]: 100%

Nn1c(C(F)(F)F)cc(=O)n(-c2cc(Oc3ncccc3C(F)(F)F)c(Cl)cc2F)c1=O [Compound 9-7, 1-Amino-3-[4-chloro-2-fluoro-5-(3-trifluoromethyl-2-pyridyloxy)phenyl]-6-trifluoromethyl-1,2,3,4-tetrahydropyrimidine-2,4-dione]
pest or weed control at 125 g/ha [1]: 100%
pest or weed control at 500 g/ha [1]: 100%
pest or weed control at 125 g/ha [2]: 90%
pest or weed control at 500 g/ha [2]: 100%
pest or weed control at 125 g/ha [3]: 90%
pest or weed control at 500 g/ha [3]: 100%

Nn1c(C(F)(F)F)cc(=O)n(-c2cc(Oc3cc(C(F)(F)F)ccn3)c(Cl)cc2F)c1=O [Compound 9-8, 1-Amino-3-[4-chloro-2-fluoro-5-(4-trifluoromethyl-2-pyridyloxy)phenyl]-6-trifluoromethyl-1,2,3,4-tetrahydropyrimidine-2,4-dione]
pest or weed control at 125 g/ha [1]: 40%
pest or weed control at 500 g/ha [1]: 100%
pest or weed control at 125 g/ha [2]: 50%
pest or weed control at 500 g/ha [2]: 99%
pest or weed control at 125 g/ha [3]: 30%
pest or weed control at 500 g/ha [3]: 99%

N#Cc1cccnc1Oc1cc(-n2c(=O)cc(C(F)(F)F)n(N)c2=O)c(F)cc1Cl [Compound 9-9, 1-Amino-3-[4-chloro-2-fluoro-5-(3-cyano-2-pyridyloxy)phenyl]-6-trifluoromethyl-1,2,3,4-tetrahydropyrimidine-2,4-dione]
pest or weed control at 125 g/ha [1]: 100%
pest or weed control at 500 g/ha [1]: 100%
pest or weed control at 125 g/ha [2]: 100%
pest or weed control at 500 g/ha [2]: 100%
pest or weed control at 125 g/ha [3]: 100%
pest or weed control at 500 g/ha [3]: 100%

N#Cc1ccc(Oc2cc(-n3c(=O)cc(C(F)(F)F)n(N)c3=O)c(F)cc2Cl)nc1 [Compound 9-10, 1-Amino-3-[4-chloro-2-fluoro-5-(5-cyano-2-pyridyloxy)phenyl]-6-trifluoromethyl-1,2,3,4-tetrahydropyrimidine-2,4-dione]
pest or weed control at 125 g/ha [1]: 100%
pest or weed control at 500 g/ha [1]: 100%
pest or weed control at 125 g/ha [2]: 95%
pest or weed control at 500 g/ha [2]: 100%
pest or weed control at 125 g/ha [3]: 90%
pest or weed control at 500 g/ha [3]: 100%

Nn1c(C(F)(F)F)cc(=O)n(-c2cc(Oc3ccc([N+](=O)[O-])cn3)c(Cl)cc2F)c1=O [Compound 9-11, 1-Amino-3-[4-chloro-2-fluoro-5-(5-nitro-2-pyridyloxy)phenyl]-6-trifluoromethyl-1,2,3,4-tetrahydropyrimidine-2,4-dione]
pest or weed control at 125 g/ha [1]: 70%
pest or weed control at 500 g/ha [1]: 100%
pest or weed control at 125 g/ha [2]: 20%
pest or weed control at 500 g/ha [2]: 90%
pest or weed control at 125 g/ha [3]: 10%
pest or weed control at 500 g/ha [3]: 80%

Cc1nsc(Oc2cc(-n3c(=O)cc(C(F)(F)F)n(N)c3=O)c(F)cc2Cl)c1[N+](=O)[O-] [Compound 9-14, 1-Amino-3-[4-Chloro-2-fluoro-5-(3-methyl-4-nitroisothiazol-5-yloxy)phenyl]-6-trifluoromethyl-1,2,3,4-tetrahydropyrimidine-2,4-dione]
pest or weed control at 125 g/ha [1]: 100%
pest or weed control at 500 g/ha [1]: 100%
pest or weed control at 125 g/ha [2]: 95%
pest or weed control at 500 g/ha [2]: 100%
pest or weed control at 125 g/ha [3]: 95%
pest or weed control at 500 g/ha [3]: 90%

Nn1c(C(F)(F)F)cc(=O)n(-c2cc(Oc3ccccn3)c(Cl)cc2F)c1=O [Compound 9-15, 1-amino-3-[4-chloro-2-fluoro-5-(2pyridyloxy)phenyl]-6-trifluoromethyl-1,2,3,4-tetrahydropyrimidine-2,4-dione]
pest or weed control at 125 g/ha [1]: 100%
pest or weed control at 500 g/ha [1]: 100%
pest or weed control at 125 g/ha [2]: 100%
pest or weed control at 500 g/ha [2]: 100%
pest or weed control at 125 g/ha [3]: 100%
pest or weed control at 500 g/ha [3]: 100%

Nn1c(C(F)(F)F)cc(=O)n(-c2cc(Oc3ncccn3)c(Cl)cc2F)c1=O [Compound 9-16, 1-Amino-3-[4-chloro-2-fluoro-5-(2-pyrimidyloxy)phenyl]-6-trifluoromethyl-1,2,3,4-tetrahydropyrimidine-2,4-dione]
pest or weed control at 125 g/ha [1]: 100%
pest or weed control at 500 g/ha [1]: 100%
pest or weed control at 125 g/ha [2]: 100%
pest or weed control at 500 g/ha [2]: 100%
pest or weed control at 125 g/ha [3]: 100%
pest or weed control at 500 g/ha [3]: 100%

Nn1c(C(F)(F)F)cc(=O)n(-c2cc(Oc3nccc(Cl)n3)c(Cl)cc2F)c1=O [Compound 9-17, 1-Amino-3-[4-chloro-2-fluoro-5-(4-chloro-2-pyrimidyloxy)phenyl]-6-trifluoromethyl-1,2,3,4-tetrahydropyrimidine-2,4-dione]
pest or weed control at 125 g/ha [1]: 90%
pest or weed control at 500 g/ha [1]: 100%
pest or weed control at 125 g/ha [2]: 30%
pest or weed control at 500 g/ha [2]: 90%
pest or weed control at 125 g/ha [3]: 20%
pest or weed control at 500 g/ha [3]: 100%

Nn1c(C(F)(F)F)cc(=O)n(-c2cc(Oc3ccccc3[N+](=O)[O-])c(Cl)cc2F)c1=O [Compound 9-21, 1-amino-3-[4-chloro-2-fluoro-5-(2-nitrophenoxy)phenyl]-6-trifluoromethyl-1,2,3,4-tetrahydropyrimidine-2,4-dione]
pest or weed control at 125 g/ha [1]: 100%
pest or weed control at 500 g/ha [1]: 100%
pest or weed control at 125 g/ha [2]: 90%
pest or weed control at 500 g/ha [2]: 100%
pest or weed control at 125 g/ha [3]: 90%
pest or weed control at 500 g/ha [3]: 100%

Nn1c(C(F)(F)F)cc(=O)n(-c2cc(Oc3ccc([N+](=O)[O-])cc3C(F)(F)F)c(Cl)cc2F)c1=O [Compound 9-22, 1-Amino-3-[4-chloro-2-fluoro-5-(4-nitro-2-trifluoromethylphenoxy)phenyl]-6-trifluoromethyl-1,2,3,4-tetrahydropyrimidine-2,4-dione]
pest or weed control at 125 g/ha [1]: 90%
pest or weed control at 500 g/ha [1]: 100%
pest or weed control at 125 g/ha [2]: 50%
pest or weed control at 500 g/ha [2]: 95%
pest or weed control at 125 g/ha [3]: 50%
pest or weed control at 500 g/ha [3]: 90%

Nn1c(C(F)(F)F)cc(=O)n(-c2cc(Oc3cc([N+](=O)[O-])cc(C(F)(F)F)c3)c(Cl)cc2F)c1=O [Compound 9-23, 1-Amino-3-[4-chloro-2-fluoro-5-(3-nitro-5-trifluoromethylphenoxy)phenyl]-6-trifluoromethyl-1,2,3,4-tetrahydropyrimidine-2,4-dione]
pest or weed control at 125 g/ha [1]: 40%
pest or weed control at 500 g/ha [1]: 100%
pest or weed control at 125 g/ha [2]: 10%
pest or weed control at 500 g/ha [2]: 70%
pest or weed control at 125 g/ha [3]: 10%
pest or weed control at 500 g/ha [3]: 70%

Nn1c(C(F)(F)F)cc(=O)n(-c2cc(Oc3ccccc3C(F)(F)F)c(Cl)cc2F)c1=O [Compound 9-24, 1-amino-3-[4-chloro-2-fluoro-5-(2-trifluoromethylphenoxy)phenyl]-6-trifluoromethyl-1,2,3,4-tetrahydropyrimidine-2,4-dione]
pest or weed control at 125 g/ha [1]: 100%
pest or weed control at 500 g/ha [1]: 100%
pest or weed control at 125 g/ha [2]: 30%
pest or weed control at 500 g/ha [2]: 90%
pest or weed control at 125 g/ha [3]: 60%
pest or weed control at 500 g/ha [3]: 70%

Nn1c(C(F)(F)F)cc(=O)n(-c2cc(Oc3ccccc3)c(Cl)cc2F)c1=O [Compound 9-26, 1-Amino-3-[4-chloro-2-fluoro-5-phenoxyphenyl]-6-trifluoromethyl-1,2,3,4-tetrahydropyrimidine-2,4-dione]
pest or weed control at 125 g/ha [1]: 100%
pest or weed control at 500 g/ha [1]: 100%
pest or weed control at 125 g/ha [2]: 90%
pest or weed control at 500 g/ha [2]: 100%
pest or weed control at 125 g/ha [3]: 95%
pest or weed control at 500 g/ha [3]: 100%
